# *1 amine or outer side, *2 acyl side, *3 side chain or, on linkers, in order; H or OH if unused. Where a SMILES comes first, the peptide text is derived from it. Bridges are numbered along the chain shown (N, C = ends). Side-chain parts run from the residue outwards. [ ]: non-standard residue; d: D form. The star is where a group is joined. ξ: configuration not given here. Me3N+CH2CH2(OCH2CH2)4CO = C[N+](C)(C)CCOCCOCCOCCOCCC(=O)*; Me3N+(CH2)2O(CH2)2O(CH2)2CO = C[N+](C)(C)CCOCCOCCC(=O)*; X28 = CC(=O)[C@H](CCC(=O)*)NC(=O)CCCCCCCCCCCCCCCCC(=O)O; PEG12 = NCCOCCOCCOCCOCCOCCOCCOCCOCCOCCOCCOCCOCCC(=O)O; CH2CH2OCH2CH2OCH2CH2NMe3+ = C[N+](C)(C)CCOCCOCC*; Trp(7-Me) = Cc1cccc2c(C[C@H](N)C(=O)O)c[nH]c12; C18 diacid = O=C(O)CCCCCCCCCCCCCCCCC(=O)*; C16 diacid = O=C(O)CCCCCCCCCCCCCCC(=O)*; X6 = CN(CC[C@H](N[*:1])C(=O)[*:2])[*:3]; γGlu = O=C(O)[C@H](CCC(=O)[*:2])N[*:1]; 2Nal = N[C@@H](Cc1ccc2ccccc2c1)C(=O)O; X26 = C[N+](C)(CCN[*:1])CC(=O)[*:2]; PEG6 = NCCOCCOCCOCCOCCOCCOCCC(=O)O; ξAEF = NCCOc1ccc(CC(N)C(=O)O)cc1; 3Pal = N[C@@H](Cc1cccnc1)C(=O)O; Lys(Me) = CNCCCC[C@H](N)C(=O)O; NMeK = CN[C@@H](CCCCN)C(=O)O; Pen = CC(C)(S)[C@H](N)C(=O)O; Thp = NC1(C(=O)O)CCOCC1; X1 = C[N+](C)(C)CCCCC*; AEEA = NCCOCCOCC(=O)O; Sar = CNCC(=O)O
# What was measured:
# IL-23R = target: T1, IL-23R (Homo sapiens, UniProt Q5VWK5); assay: IL23R Reporter Assay; assay type: cell-based; conditions: HEK293 cells containing IL-23R, IL-12Rβ1 and STAT-inducible firefly luciferase reporter; 10 ng/mL IL-23 (EC90); 5 h
# T1 construct: HEK293 cells containing IL-23R, IL-12Rβ1 and a firefly luciferase reporter gene driven by a STAT-inducible promoter (Promega); host or cells: HEK293
# T1 sequence (Q5VWK5 24-629): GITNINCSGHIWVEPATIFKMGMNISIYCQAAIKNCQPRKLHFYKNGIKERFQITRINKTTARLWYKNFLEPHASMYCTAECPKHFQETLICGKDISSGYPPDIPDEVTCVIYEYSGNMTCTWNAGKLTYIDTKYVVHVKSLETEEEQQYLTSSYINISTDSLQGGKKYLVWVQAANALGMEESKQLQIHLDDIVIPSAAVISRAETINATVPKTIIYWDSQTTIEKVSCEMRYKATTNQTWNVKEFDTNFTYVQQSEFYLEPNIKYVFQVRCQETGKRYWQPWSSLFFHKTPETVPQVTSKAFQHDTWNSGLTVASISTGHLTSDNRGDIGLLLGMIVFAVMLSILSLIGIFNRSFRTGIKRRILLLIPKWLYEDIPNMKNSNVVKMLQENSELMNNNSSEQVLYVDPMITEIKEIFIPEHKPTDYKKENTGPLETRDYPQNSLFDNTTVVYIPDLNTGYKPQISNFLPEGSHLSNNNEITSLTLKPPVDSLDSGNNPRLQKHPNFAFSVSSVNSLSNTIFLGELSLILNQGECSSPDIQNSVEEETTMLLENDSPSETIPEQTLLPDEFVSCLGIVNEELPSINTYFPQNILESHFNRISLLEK
# Summary of the method: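 IC50 values were fitted with a 4-parameter Hill equation to luciferase signal, scaled between IL-23-only wells (0% inhibition) and 30 μM reference inhibitor (100%). The readout was a STAT-inducible reporter in IL-23R/IL-12Rβ1 HEK293 cells, stimulated with added 10 ng/mL IL-23 (EC90) for 5 h at 37° C and developed with BioGlo.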
# [1] = test system: IL-23-stimulated phosphorylated STAT3 in peripheral blood mononuclear cells (PBMCs); assay: PBMC pSTAT3 Assay; assay type: cell-based; conditions: PBMCs from healthy donors; 30 min preincubation with peptide; IL-23 5 ng/mL for 30 min; phospho-STAT3 by MSD
# Summary of the method: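 Phospho-STAT3 quantified by Meso Scale assay in lysates of PBMCs exposed to IL-23 (5 ng/mL, 30 min, 37 °C) after 30 min peptide pretreatment. Cells were cryopreserved donor PBMCs activated 4 days with anti-CD3 plus IL-1β (100 ng/mL) and starved ~4 h; IC50 reported.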
Compound,IC50 (IL-23R) [nM],IC50 [1] [nM]
"Cc1cccc2c(C[C@@H]3NC(=O)[C@H]([C@@H](C)O)NC(=O)[C@H](CC(N)=O)NC(=O)[C@@H](NC(=O)[C@@H](CCCNC(=N)N)CC(=O)COCCOCCNC(=O)COCCOCCNC(=O)CC[C@H](NC(=O)CCCCCCCCCCCCCCCCC(=O)O)C(=O)O)C(C)(C)SSC(C)(C)[C@@H](C(=O)N[C@@H](Cc4ccc(OCCN)cc4)C(=O)N[C@@H](Cc4ccc5ccccc5c4)C(=O)NC4(C(=O)N[C@@H](CCC(=O)O)C(=O)N[C@@H](CC(N)=O)C(=O)N[C@@H](Cc5cccnc5)C(=O)N(C)CC(N)=O)CCOCC4)NC(=O)[C@H](CCCCN(C)C(=O)CCCCCOCC[N+](C)(C)C)NC3=O)c[nH]c12 [compound 84, HOC18gEPEG2PEG2CO-r-Pen(3)-N-T-7MeW-K(NMecPEG3a)-Pen(3)-AEF-2Nal-THP-E-N-3Pya-Sar-CONH2]",< 50,< 0.5
"CC(=O)N(C)CCCC[C@@H]1NC(=O)[C@H](Cc2c[nH]c3c(C)cccc23)NC(=O)[C@H]([C@@H](C)O)NC(=O)[C@H](CC(=O)N(C)C)NC(=O)[C@@H](NC(=O)CCOCCOCC[N+](C)(C)C)C(C)(C)SSC(C)(C)[C@@H](C(=O)N[C@@H](Cc2ccc(OCCOCCOCC[N+](C)(C)C)cc2)C(=O)N[C@@H](Cc2ccc3ccccc3c2)C(=O)NC2(C(=O)N[C@@H](CCCCN(C)C(C)=O)C(=O)N[C@@H](CC(N)=O)C(=O)N[C@@H](Cc3cccnc3)C(=O)N(C)[C@@H](CCCCNC(=O)CCOCCOCCOCCOCCOCCOCCNC(=O)CC[C@H](NC(=O)CCCCCCCCCCCCCCCCC(=O)O)C(=O)O)C(N)=O)CCOCC2)NC1=O [compound 88, cPEG3aCO-Pen(3)-N(N(Me)2)-T-7MeW-K(NMeAc)-Pen(3)-APEG3F-2Nal-THP-K(NMeAc)-N-3Pya-NMeK(PEG6gEC18OH)-CONH2] ({Me3N+(CH2)2O(CH2)2O(CH2)2CO}-[Pen]D(NMe2)T[Trp(7-Me)][Lys(Me)](Ac)[Pen]Y(CH2CH2OCH2CH2OCH2CH2NMe3+)[2Nal][Thp][Lys(Me)](Ac)N[3Pal][NMeK]([PEG6-γGlu-C18 diacid])-NH2; disulfide 1-6)",< 50,< 0.5
"CC(=O)N(C)CCCC[C@@H]1NC(=O)[C@H](Cc2c[nH]c3c(C)cccc23)NC(=O)[C@H]([C@@H](C)O)NC(=O)[C@H](CC(=O)N(C)C)NC(=O)[C@@H](NC(=O)COCCOCCNC(=O)C[N+](C)(C)CCNC(=O)COCCOCCNC(=O)CC[C@H](NC(=O)CCCCCCCCCCCCCCCCC(=O)O)C(=O)O)C(C)(C)SSC(C)(C)[C@@H](C(=O)N[C@@H](Cc2ccc(OCCOCCOCC[N+](C)(C)C)cc2)C(=O)N[C@@H](Cc2ccc3ccccc3c2)C(=O)NC2(C(=O)N[C@@H](CCCCN(C)C(C)=O)C(=O)N[C@@H](CC(N)=O)C(=O)N[C@@H](Cc3cccnc3)C(=O)N(C)CC(=O)N(C)C)CCOCC2)NC1=O [compound 89, HOC18gEPEG2SP6PEG2CO-Pen(3)-N(N(Me)2)-T-7MeW-K(NMeAc)-Pen(3)-APEG3F-2Nal-THP-K(NMeAc)-N-3Pya-Sar-CON(Me)2] ({C18 diacid-γGlu-AEEA}-[X26][AEEA][Pen]D(NMe2)T[Trp(7-Me)][Lys(Me)](Ac)[Pen]Y(CH2CH2OCH2CH2OCH2CH2NMe3+)[2Nal][Thp][Lys(Me)](Ac)N[3Pal][Sar]-NMe2; disulfide 3-8)",< 50,< 0.5
"CC(=O)[C@H](CCC(=O)NCCOCCOCCOCCOCCOCCOCCC(=O)NCCCC[C@@H](C(N)=O)N(C)C(=O)[C@H](Cc1cccnc1)NC(=O)[C@H](CC(N)=O)NC(=O)[C@H](CCC(=O)O)NC(=O)C1(NC(=O)[C@H](Cc2ccc3ccccc3c2)NC(=O)C(Cc2ccc(OCCN)cc2)NC(=O)[C@H]2NC(=O)[C@H](CCN(C)C(=O)CCOCCOCCOCCOCC[N+](C)(C)C)NC(=O)[C@H](Cc3c[nH]c4c(C)cccc34)NC(=O)[C@H]([C@@H](C)O)NC(=O)[C@H](CC(=O)N(C)C)NC(=O)[C@@H](NC(=O)CCOCCOCCOCCOCC[N+](C)(C)C)C(C)(C)SSC2(C)C)CCOCC1)NC(=O)CCCCCCCCCCCCCCCCC(=O)O (stereo partly shown) [compound 90, cPEG5aCO-Pen(3)-N(N(Me)2)-T-7MeW-Dab(NMecPEG5a)-Pen(3)-AEF-2Nal-THP-E-N-3Pya-NMeK(PEG6gEC18OH)-CONH2] ({Me3N+CH2CH2(OCH2CH2)4CO}-[Pen]D(NMe2)T[Trp(7-Me)][X6](Me3N+CH2CH2(OCH2CH2)4CO)[Pen][ξAEF][2Nal][Thp]EN[3Pal][NMeK]([PEG6-X28])-NH2; disulfide 1-6)",50 to 500,< 0.5
"CC(=O)[C@H](CCC(=O)NCCOCCOCCOCCOCCOCCOCCC(=O)NCCCC[C@@H](C(N)=O)N(C)C(=O)[C@H](Cc1cccnc1)NC(=O)[C@H](CC(N)=O)NC(=O)[C@H](CCC(=O)O)NC(=O)C1(NC(=O)[C@H](Cc2ccc3ccccc3c2)NC(=O)C(Cc2ccc(OCCN)cc2)NC(=O)[C@H]2NC(=O)[C@H](CCN(C)C(=O)CCOCCOCCOCCOCC[N+](C)(C)C)NC(=O)[C@H](Cc3c[nH]c4c(C)cccc34)NC(=O)[C@H]([C@@H](C)O)NC(=O)[C@H](CC(=O)N(C)C)NC(=O)[C@@H](NC(=O)CCOCCOCCOCCOCC[N+](C)(C)C)C(C)(C)SSC2(C)C)CCOCC1)NC(=O)CCCCCCCCCCCCCCCCC(=O)O (stereo partly drawn) [compound 91, HOC18gEPEG2PEG2COSP6-Pen(3)-N(N(Me)2)-T-7MeW-K(NMeAc)-Pen(3)-APEG3F-2Nal-THP-K(NMeAc)-N-3Pya-Sar-CON(Me)2] ({Me3N+CH2CH2(OCH2CH2)4CO}-[Pen]D(NMe2)T[Trp(7-Me)][X6](Me3N+CH2CH2(OCH2CH2)4CO)[Pen][ξAEF][2Nal][Thp]EN[3Pal][NMeK]([PEG6-X28])-NH2; disulfide 1-6)",< 50,< 0.5

# More lines, main results first:
IC50 (IL-23R) [nM],Compound,IC50 [1] [nM]
50 to 500,"CC(=O)N[C@H](CCCNC(=N)N)C(=O)N[C@@H]1C(=O)N[C@@H](CC(N)=O)C(=O)N[C@@H]([C@@H](C)O)C(=O)N[C@@H](Cc2c[nH]c3c(C)cccc23)C(=O)N[C@@H](CCCCNC(=O)COCCOCCNC(=O)COCCOCCNC(=O)CC[C@H](NC(=O)CCCCCCCCCCCCCCC(=O)O)C(=O)O)C(=O)N[C@H](C(=O)N[C@@H](Cc2ccc(OCCCCC[N+](C)(C)C)cc2)C(=O)N[C@@H](Cc2ccc3ccccc3c2)C(=O)NC2(C(=O)N[C@@H](CCC(=O)O)C(=O)N[C@@H](CC(N)=O)C(=O)N[C@@H](Cc3cccnc3)C(=O)N(C)CC(=O)N(C)C)CCOCC2)C(C)(C)SSC1(C)C [compound 92, MeCO-r-Pen(3)-N-T-7MeW-K(PEG2PEG2gEC18OH)-Pen(3)-TMAPF-2Nal-THF-E-N-3Pya-Sar-CONH2] (Ac-[dR][Pen]NT[Trp(7-Me)]K([AEEA-AEEA-γGlu-C16 diacid])[Pen]Y(X1)[2Nal][Thp]EN[3Pal][Sar]-NMe2; disulfide 2-7)",< 0.5
< 50,"CC(=O)N(C)CCCC[C@@H]1NC(=O)[C@H](Cc2c[nH]c3c(C)cccc23)NC(=O)[C@H]([C@@H](C)O)NC(=O)[C@H](CC(=O)N(C)C)NC(=O)[C@@H](NC(=O)CCOCCOCCOCCOCCOCCOCCOCCOCCOCCOCCOCCOCCNC(=O)CC[C@H](NC(=O)CCCCCCCCCCCCCCCCC(=O)O)C(=O)O)C(C)(C)SSC(C)(C)[C@@H](C(=O)N[C@@H](Cc2ccc(OCCCCC[N+](C)(C)C)cc2)C(=O)N[C@@H](Cc2ccc3ccccc3c2)C(=O)NC2(C(=O)N[C@@H](CCCCN(C)C(C)=O)C(=O)N[C@@H](CC(N)=O)C(=O)N[C@@H](Cc3cccnc3)C(=O)N(C)CC(=O)N(C)C)CCOCC2)NC1=O [compound 95, HOC18gEPEG12CO-Pen(3)-N(N(Me)2)-T-7MeW-K(NMeAc)-Pen(3)-TMAPF-2Nal-THP-K(NMeAc)-N-3Pya-Sar-CON(Me)2] ({C18 diacid-γGlu-PEG12}-[Pen]D(NMe2)T[Trp(7-Me)][Lys(Me)](Ac)[Pen]Y(X1)[2Nal][Thp][Lys(Me)](Ac)N[3Pal][Sar]-NMe2; disulfide 1-6)",< 0.5
< 50,"CC(=O)N[C@@H]1C(=O)N[C@@H](CC(N)=O)C(=O)N[C@@H]([C@@H](C)O)C(=O)N[C@@H](Cc2c[nH]c3ccccc23)C(=O)N[C@@H](CCCCNC(=O)CCOCCOCCOCCOCCOCCOCCOCCOCCOCCOCCOCCOCCNC(=O)CC[C@H](NC(=O)CCCCCCCCCCCCCCCCC(=O)O)C(=O)O)C(=O)N[C@H](C(=O)N[C@@H](Cc2ccc(OCCN)cc2)C(=O)N[C@@H](Cc2ccc3ccccc3c2)C(=O)NC2(C(=O)N[C@@H](CCC(=O)O)C(=O)N[C@@H](CC(N)=O)C(=O)N[C@@H](Cc3cccnc3)C(=O)N(C)CC(N)=O)CCOCC2)C(C)(C)SSC1(C)C [compound 96, MeCO-Pen(3)-N-T-7MeW-K(PEG12gEC18OH)-Pen(3)-AEF-2Nal-THP-E-N-3Pya-Sar-CONH2]",< 0.5

# — patent US20260250320A1, “LIPIDATED PEPTIDE INHIBITORS OF INTERLEUKIN-23 RECEPTOR” (Janssen Pharmaceutica NV, priority 2023, published 2026)
